For assay [1], the system named is A172 glioblastoma cells. As to the kind of experiment: Nucleus morphology and caspase 3 activation in A172 cells. Format: cell-based, human. An excerpt: FIG. 2: A—The A172 cells were cultivated on glass slides. […] The cells were then fixed in 4% paraformaldehyde, permeabilised with 0.1% NP40 and marked with Hoechst dye (blue) and the anti-p20 antibody (active fragment of caspase 3, in red). The cells were then observed under the fluorescence microscope. B—Graphic representation of the number of cells with an apoptotic, fragmented or condensed nucleus. The bars are an average of two slides from one experiment representative of 3 carried out. C—In parallel, proteic extracts were prepared from cells treated with various drugs (cisplatinum 15 μM; CDR225 μM; CDR615 μM; CDR915 μM) and following denaturation the extracts were deposited on a !0% SDS-Page gel. After migration, the proteins were transferred onto nitrocellulose (Biorad, 0.2 μm) and the p20 fragment of the caspase 3 was detected by Western blot with an anti-p20 antibody (1/1000, R&D System).
(§1) The first step towards characterising the anticancerous effects of the compounds derived from ruthenium consists of testing their activity on tumoral lines kept in culture and comparing these effects on lines which have different characteristics as regards resistance to the anticancer treatments. Two lines of human glioblastomas (A172, HS683) and two lines of neuroblastomas (N2A and SH5Y) were used in order to test the cytostatic effects of the compounds according to the invention. Cisplatinum was chosen as the cytotoxic comparison agent. In a first approach, an MTT test was used to measure the activity of a mitochondrial enzyme, and this gives an estimate of the number of cells. Then, the cytotoxic effects of the compounds according to the invention were characterised in greater detail by analysing the morphology of the nucleus and the activation of caspase 3—two markers of cell apoptosis.

The subject of assay [2] is A172 cells. As to the kind of experiment: MTT test on A172 cells, combination with NCS or Taxol. Format: cell-based, human. The conditions noted are these: concentration bringing about 10% of the maximum effect; 48 hrs. The protocol: FIG. 7: The A172 cells were cultivated in plates with 96 wells in DMEM medium with 10% calf serum. At 30% confluence, the cells were treated for 48 hrs with cisplatinum, CDR6, NCS (Neocarzinostatin), Taxol or a combination of these drugs in the concentrations indicated. The quantity of cells present in the wells was evaluated by an MTT (MTT, Sigma) test, the reaction products of which are quantified with an Elisa plate reader (Metertech, USA) (490-650 nm). […] The graphs show an average of 8 points with the typical spacings over one experiment representative of 4 carried out. The thick black line indicates the IC50 for each graph.
The mechanisms induced by various anticancer drugs are different according to the mode of action of these drugs. […] NCS induces DNA double strand breaks, similar to those of gamma rays (Smith and Nicolaou 1996). Taxol disrupts the mitotic spindles (Oberlies and Kroll 2004).
A comparison was made using two doses of NCS and two doses of Taxol. The one enables one to expect the IC50, the other leads to a reduction by 10% of the cell viability after 48 hrs treatment. These two concentrations were combined with a concentration of ruthenium derivative or cisplatinum bringing about 10% of the maximum effect.
Background: Formazan colour is commonly taken as a measure of viable cells.

Assay [3] has as its system HCT116 cells. Kind of assay: Western blot of p53, p21 and phospho-histone H3 in HCT116 cells. The conditions noted are these: 10 μM. The class given is cell-based, human. How it is done: FIG. 5: Detection of p53, p21 and of the phosphorylation of histone H3 in the HCT116 cells treated with CDR. The HCT116 cells were treated with the various compounds (10 μM) and for the periods of time indicated (24 hrs or 6 hrs). The proteins were extracted with a lysis buffer and were separated on 10% SDS-Page gel. After being transferred onto nitrocellulose, the p53, p21 proteins and histone H3 were detected by Western blot using anti-p53 (pAb1801), anti-p21 (1/200, Oncogene) antibody and anti-phospho serine 10 of histone H3 (1/2000, Santacruz).
(§2) For the purpose of determining the molecular mechanisms used by the ruthenium derivatives and comparing them with those induced by cisplatinum, the expression of p53, p73 p21 and bax in the A172 and HCT116 lines was analysed.

Assay [4] has as its system A172 cells. As to the kind of experiment: Western blot of p53, p73, p21 and Bax in A172 cells. Format: cell-based, human. The protocol: FIG. 3: Detection of p53 and p73 in A172 cells treated with CDR. The A172 cells were treated with the concentrations indicated (2, 5 or 10 μM) with the various compounds and for the periods of time indicated (24 hrs or 6 hrs). The proteins were extracted with a lysis buffer and were separated on 10% SDS-Page gel. After being transferred onto nitrocellulose, the p53 and p73 proteins were detected by Western blot using anti-p53 (pAb1801) and anti-p73 (1/200, Ab2, Oncogene) antibody.
FIG. 4: Detection of p21 and Bax in A172 cells treated with CDR. The A172 cells were treated with the various compounds (10 μM) for 24 hrs. The proteins were extracted with a lysis buffer and were separated on 10% SDS-Page gel. After being transferred onto nitrocellulose, the p21 and Bax proteins were detected by Western blot using anti-p21 (1/200, Oncogene) and anti-Bax (1/2000, Santacruz) antibody.
as §2
(In general: Immunoblotting shows a protein as a band on a membrane.)

For assay [5], the system named is 2008/CMV and 2008/ATP7B cells. Kind of assay: MTT test on 2008/CMV and 2008/ATP7B cells. Format: cell-based. Particulars: 48 hrs. How it is done:
(§3) FIG. 6: The 2008/CMV and 2008/ATP7B cells (contributed by Dr. Howell) were cultivated in plates with 96 wells in DMEM medium with 10% calf serum. At 30% confluence, the cells were treated for 48 hrs with cisplatinum or the various compounds derived from ruthenium in the concentrations indicated (1, 5, 15, 50 μM). The quantity of cells present in the wells was evaluated by an MTT (MTT, Sigma) test. The results obtained were related to the values of the control condition (100% viability). The graphs show an average of 8 points with the typical spacings over one experiment representative of 3 carried out. The thick black line indicates the IC50 for each graph.
One of these mechanisms is the overexpression of the copper export pump (ATP7B) which expels cisplatinum from the cell. It has been shown that this molecule is overexpressed in human tumours and that cell lines which overexpress this molecule are more resistant to cisplatinum and carboplatinum than control lines.
Two cell lines derived from 2008 cells (Katano, Safaei et al. 2003) were studied. One overexpresses the ATP7B pump, and the other only contains the control vector. The cytostatic activity of the cisplatinum and the CDR was tested in these two lines using the MTT test.

For assay [6], the system named is A172, HS683, N2A, and SH5Y. As to the kind of experiment: MTT test on glioblastoma and neuroblastoma lines. Format: cell-based, human. The conditions noted are these: 48 hrs treatment; compared with cisplatinum. The protocol: as §3, with “FIG. 1:” for “FIG. 6:”, “The A172” for “The 2008/CMV and 2008/ATP7B”, “cells” for “cells (contributed by Dr. Howell)”, “cultivated on” for “cultivated in”, “Sigma) test of which the products of the reaction are quantified with an Elisa plate reader (Metertech, USA) (490-650 nm).” for “Sigma) test.”, “of 4” for “of 3”
TABLE 2: a summary of the results obtained on various cell lines and primary glial cultures. The experiments were carried out under the same conditions as those described for the A172 cells. Each IC50 is an indicative value obtained over 4 independent experiments.
as §1

Consider `CN(C)Cc1cccc[c]1[Ru+].CP(C)c1ccccc1.F[P-](F)(F)(F)(F)F.c1ccccc1` [Compound 6, [Ru (η^6-C6H6)-2-(CH2NMe2)—C6H4—(PMe2Ph)]PF6], for which the “nuclear condensation and fragmentation” value in assay [1] (48 hrs treatment) was “induce nuclear condensation and fragmentation characteristic of apoptosis”. For the same compound, the “proteic levels of the active fragment of caspase 3 (Western blot)” value in assay [1] (cisplatinum 15 μM, CDR6 15 μM, CDR9 15 μM) is recorded as “increasing the proteic levels of the active fragment of caspase 3”. For the same compound, the “effectiveness of co-treatment with NCS or Taxol” value in assay [2] is on record as “significantly more effective in relation to a co-treatment with cisplatinum”. In assay [3], the “increase in expression of p21 and inhibition of phosphorylation of histone H3” value was “identical for CDR 6 and cisplatinum”. Also, the “induction of p53” value in assay [3] (6 hrs to 24 hrs) is “induction of p53”. In assay [4] (10 μM, 24 hours treatment), the “expression of p21 and Bax” value was “induces the expression of p21 and Bax”. The p53 proteic levels entry is “induce p53” in assay [4] (6 hrs treatment) and “no effect” in assay [4] (24 hrs treatment). The “sensitivity of the line expressing ATP7B relative to the control line (MTT)” value in assay [5] is listed as “equivalent to that of the control line”. The “reduction of the number of tumoral cells (MTT)” value in assay [6] was “at a concentration similar to or lower than that of cisplatinum”.

For the origin of these results see patent US8193175B2, “Ruthenium complexes for treating cancers” (Universite de Strasbourg, priority 2004, dated 2012).
